Results as given in patent publication US20260035384A1, “COMPOUND CONTAINING CYCLOHEXYL” (CHIA TAI TIANQING PHARMACEUTICAL GROUP CO., LTD., priority 2022, published 2026).

Key:
AR in LNCaP cells = target: T1, AR in LNCaP cells (Homo sapiens, UniProt P10275, T878A); assay: Assay on degradation activity for AR in LNCaP cells (HTRF human androgen receptor detection kit); assay type: cell-based; settings: 24 h incubation
T1 construct: Assay on Degradation Activity for AR in LNCaP Cells; endogenous in cells; host or cells: LNCaP cells
T1 sequence (P10275 1-920 T878A): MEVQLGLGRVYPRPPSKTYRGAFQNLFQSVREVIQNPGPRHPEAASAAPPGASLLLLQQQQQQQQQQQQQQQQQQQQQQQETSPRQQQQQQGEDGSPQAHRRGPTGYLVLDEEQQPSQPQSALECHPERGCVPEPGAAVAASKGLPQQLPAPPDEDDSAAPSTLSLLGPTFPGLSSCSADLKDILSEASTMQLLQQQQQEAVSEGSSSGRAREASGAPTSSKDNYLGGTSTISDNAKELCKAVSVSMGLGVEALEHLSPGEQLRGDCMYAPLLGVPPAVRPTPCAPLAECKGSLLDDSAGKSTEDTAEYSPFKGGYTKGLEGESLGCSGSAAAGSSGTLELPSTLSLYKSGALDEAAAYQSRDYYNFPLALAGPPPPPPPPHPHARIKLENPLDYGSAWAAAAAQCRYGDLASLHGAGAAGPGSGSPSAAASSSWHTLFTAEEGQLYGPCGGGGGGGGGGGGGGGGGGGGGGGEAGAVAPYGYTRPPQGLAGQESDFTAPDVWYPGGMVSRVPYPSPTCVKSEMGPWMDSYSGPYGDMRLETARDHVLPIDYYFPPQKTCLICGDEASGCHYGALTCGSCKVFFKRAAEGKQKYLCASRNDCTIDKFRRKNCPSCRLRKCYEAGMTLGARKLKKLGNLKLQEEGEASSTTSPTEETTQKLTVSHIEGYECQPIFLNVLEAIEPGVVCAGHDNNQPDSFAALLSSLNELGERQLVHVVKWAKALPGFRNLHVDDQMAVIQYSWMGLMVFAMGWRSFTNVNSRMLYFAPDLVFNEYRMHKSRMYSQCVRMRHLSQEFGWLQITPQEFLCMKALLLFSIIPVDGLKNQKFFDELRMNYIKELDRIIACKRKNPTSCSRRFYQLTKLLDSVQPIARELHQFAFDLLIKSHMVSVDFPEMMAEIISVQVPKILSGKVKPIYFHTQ
Summary of the method: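 LNCaP cells seeded in 2% CSS-FBS phenol red-free 1640 medium overnight, then treated in duplicate with 500 nM–0.488 nM compound for 24 h. AR in lysates quantified by HTRF (Eu cryptate/d2 antibodies, 2 h, 25 °C, 665/620 nm); DC50 and Dmax from four-parameter fits.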

VCaP cells = assay: Assay on inhibitory activity for VCaP cell proliferation (CCK-8); assay type: cell-based; settings: Homo sapiens, 168 h incubation
Summary of the method: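 VCaP cells seeded at 1×10^5 cells/mL in phenol red-free DMEM with 5% charcoal-stripped FBS, treated in duplicate at 10000–0.61 nM final. After 168 h incubation, viability was read with CCK-8.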

`N#Cc1ccc(O[C@H]2CC[C@H](NC(=O)c3ccc(C4CCN(C5CN(c6cc7onc(C8CCC(=O)NC8=O)c7c7ccccc67)C5)CC4)nn3)CC2)cc1Cl` (stereo partly drawn) [Compound 48] gave a DC50 (AR in LNCaP cells; HTRF) of at most 20 nM, a Dmax (AR in LNCaP cells; maximum degradation rate) of over 80% and an IC50 (VCaP cells) of under 100 nM.
